In ChEMBL document CHEMBL1128095, “3,4-diarylthiophenes are selective COX-2 inhibitors” (Bioorg Med Chem Lett, 1995):

What was measured:
[1] = tested on: Rattus norvegicus; test: Compound was tested for its ability to inhibit carrageenan rat foot edema at 10 mg/kg dose; type: functional
[2] = molecular target: Prostaglandin G/H synthase 1 (Homo sapiens, UniProt P23219); test: Inhibitory activity against human recombinant Prostaglandin G/H synthase 1
[3] = molecular target: T1, Prostaglandin G/H synthase 2 (Homo sapiens, UniProt P35354)
T1 sequence (P35354 whole entry): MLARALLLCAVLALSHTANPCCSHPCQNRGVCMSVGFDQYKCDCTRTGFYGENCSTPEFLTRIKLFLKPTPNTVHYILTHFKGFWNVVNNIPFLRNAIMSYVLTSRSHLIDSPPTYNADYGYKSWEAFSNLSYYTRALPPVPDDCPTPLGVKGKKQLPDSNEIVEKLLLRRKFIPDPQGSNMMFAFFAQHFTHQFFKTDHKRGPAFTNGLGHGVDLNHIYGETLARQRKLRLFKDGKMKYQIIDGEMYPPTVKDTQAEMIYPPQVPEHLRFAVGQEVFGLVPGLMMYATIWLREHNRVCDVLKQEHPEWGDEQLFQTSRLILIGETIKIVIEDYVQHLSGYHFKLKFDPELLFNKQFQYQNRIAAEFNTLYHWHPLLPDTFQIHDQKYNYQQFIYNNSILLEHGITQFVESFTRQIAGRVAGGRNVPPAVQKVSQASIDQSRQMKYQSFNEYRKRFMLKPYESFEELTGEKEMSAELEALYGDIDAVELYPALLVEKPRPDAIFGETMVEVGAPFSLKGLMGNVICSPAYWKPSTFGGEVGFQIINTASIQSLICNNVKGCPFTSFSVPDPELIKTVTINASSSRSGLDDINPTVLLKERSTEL
Description: Inhibitory activity against human recombinant Prostaglandin G/H synthase 2

Chain of Prostaglandin G/H synthase 1 (P23219 whole entry): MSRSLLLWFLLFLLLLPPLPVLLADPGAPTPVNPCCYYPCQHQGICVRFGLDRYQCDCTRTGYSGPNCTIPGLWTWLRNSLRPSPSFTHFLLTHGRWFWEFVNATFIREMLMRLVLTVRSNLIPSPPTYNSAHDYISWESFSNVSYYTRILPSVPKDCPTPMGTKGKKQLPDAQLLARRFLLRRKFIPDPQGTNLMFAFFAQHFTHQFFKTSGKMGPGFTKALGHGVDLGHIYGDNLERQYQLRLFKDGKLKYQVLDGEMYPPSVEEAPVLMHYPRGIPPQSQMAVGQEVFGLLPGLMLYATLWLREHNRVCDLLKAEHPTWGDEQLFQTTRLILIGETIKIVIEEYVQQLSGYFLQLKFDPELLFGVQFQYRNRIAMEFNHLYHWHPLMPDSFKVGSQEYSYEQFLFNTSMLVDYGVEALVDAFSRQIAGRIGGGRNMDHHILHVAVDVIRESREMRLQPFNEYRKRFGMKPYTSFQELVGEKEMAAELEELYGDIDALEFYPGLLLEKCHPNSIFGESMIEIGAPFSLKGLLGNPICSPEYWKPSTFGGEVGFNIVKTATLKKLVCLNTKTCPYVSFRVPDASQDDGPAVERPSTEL

| IC50 [2] [µM] | IC50 [3] [µM] | SMILES | inhibition in vivo at 10 mg/kg [1] [%] |
| --- | --- | --- | --- |
|  |  | CS(=O)(=O)c1ccc(-c2cc(Br)sc2-c2ccc(F)cc2)cc1 [DUP-697] | 57 |
| 1.8 | 0.008 | NS(=O)(=O)c1ccc(-c2cscc2-c2ccc(F)cc2)cc1 | 46.5 |
| 10 | 0.009 | COc1ccc(-c2cscc2-c2ccc(S(N)(=O)=O)cc2)cc1F |  |
| 5.2 |  | CS(=O)(=O)c1ccc(-c2csc(Br)c2-c2ccc(F)cc2)cc1 | 30 |
| > 1000 | 0.7 | CS(=O)(=O)c1ccc(-c2c(Br)sc(Br)c2-c2ccc(F)cc2)cc1 |  |
| 0.9 | 0.05 | COc1ccc(-c2cscc2-c2ccc(S(C)(=O)=O)cc2)cc1 |  |
| > 100 | > 100 | CS(=O)(=O)c1ccc(-c2c(-c3ccc(F)cc3)csc2Br)cc1 |  |
| > 100 | 0.03 | COc1ccc(-c2cscc2-c2ccc(S(C)(=O)=O)cc2)cc1F |  |
| > 1000 | 0.08 | CS(=O)(=O)c1ccc(-c2cscc2-c2ccc(F)cc2)cc1 | 33 |
